How the values were obtained:
[1] = biological target: Cyclin-dependent kinase 3 (Homo sapiens) (UniProt Q00526); assay: Inhibition of wild-type human full length CDK3 (M1 to H305 residues) expressed in bacterial expression system assessed as residual activity at 50 nM by Kinomescan method relative to control
[2] = biological target: Rho-associated protein kinase 1 (Homo sapiens, UniProt Q13464); assay: Inhibition of human ROCK1 (M1 to R415 residues) expressed in mammalian expression system assessed as residual activity at 50 nM by KINOMEscan assay relative to control
[3] = biological target: 5'-AMP-activated protein kinase catalytic subunit alpha-2 (Homo sapiens) (UniProt P54646); assay: Inhibition of wild-type human partial length AMPK alpha2 (M1 to E306 residues) expressed in bacterial expression system assessed as residual activity at 50 nM by Kinomescan method relative to control
[4] = biological target: Serine/threonine-protein kinase MARK1 (Homo sapiens) (UniProt Q9P0L2); assay: Inhibition of wild-type human partial length MARK1 (Q30 to T341 residues) expressed in bacterial expression system assessed as residual activity at 50 nM by Kinomescan method relative to control
Sequence of Serine/threonine-protein kinase MARK1 (Homo sapiens) (Q9P0L2 whole entry, looked up, the tested form may be a part): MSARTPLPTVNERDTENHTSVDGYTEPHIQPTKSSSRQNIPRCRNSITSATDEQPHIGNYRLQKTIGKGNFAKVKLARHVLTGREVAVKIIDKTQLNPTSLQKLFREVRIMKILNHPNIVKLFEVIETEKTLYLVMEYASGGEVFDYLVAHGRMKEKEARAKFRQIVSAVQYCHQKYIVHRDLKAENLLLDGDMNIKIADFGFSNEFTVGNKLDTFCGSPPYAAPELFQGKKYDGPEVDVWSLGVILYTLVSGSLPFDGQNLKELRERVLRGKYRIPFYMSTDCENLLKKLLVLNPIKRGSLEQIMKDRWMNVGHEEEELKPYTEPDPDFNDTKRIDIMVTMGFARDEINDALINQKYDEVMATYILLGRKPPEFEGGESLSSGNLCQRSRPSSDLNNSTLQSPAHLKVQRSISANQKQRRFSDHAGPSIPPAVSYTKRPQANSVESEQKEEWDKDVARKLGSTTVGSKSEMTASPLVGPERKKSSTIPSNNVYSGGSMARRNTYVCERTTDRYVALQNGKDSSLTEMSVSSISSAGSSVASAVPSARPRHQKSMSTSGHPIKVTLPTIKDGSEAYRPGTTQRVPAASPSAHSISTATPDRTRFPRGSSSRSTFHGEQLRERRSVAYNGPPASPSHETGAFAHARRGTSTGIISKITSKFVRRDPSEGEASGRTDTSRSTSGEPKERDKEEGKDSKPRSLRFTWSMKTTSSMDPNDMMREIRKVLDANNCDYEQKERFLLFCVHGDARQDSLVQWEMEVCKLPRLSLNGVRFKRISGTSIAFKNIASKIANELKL

[5] = biological target: Tyrosine-protein kinase ABL1 (Homo sapiens) (UniProt P00519); assay: Inhibition of wild-type human phosphorylated ABL1 (S229 to K512 residues) expressed in mammalian expression system assessed as residual activity at 50 nM by Kinomescan method relative to control
Sequence of Tyrosine-protein kinase ABL1 (Homo sapiens) (P00519 whole entry, the tested form may be a part): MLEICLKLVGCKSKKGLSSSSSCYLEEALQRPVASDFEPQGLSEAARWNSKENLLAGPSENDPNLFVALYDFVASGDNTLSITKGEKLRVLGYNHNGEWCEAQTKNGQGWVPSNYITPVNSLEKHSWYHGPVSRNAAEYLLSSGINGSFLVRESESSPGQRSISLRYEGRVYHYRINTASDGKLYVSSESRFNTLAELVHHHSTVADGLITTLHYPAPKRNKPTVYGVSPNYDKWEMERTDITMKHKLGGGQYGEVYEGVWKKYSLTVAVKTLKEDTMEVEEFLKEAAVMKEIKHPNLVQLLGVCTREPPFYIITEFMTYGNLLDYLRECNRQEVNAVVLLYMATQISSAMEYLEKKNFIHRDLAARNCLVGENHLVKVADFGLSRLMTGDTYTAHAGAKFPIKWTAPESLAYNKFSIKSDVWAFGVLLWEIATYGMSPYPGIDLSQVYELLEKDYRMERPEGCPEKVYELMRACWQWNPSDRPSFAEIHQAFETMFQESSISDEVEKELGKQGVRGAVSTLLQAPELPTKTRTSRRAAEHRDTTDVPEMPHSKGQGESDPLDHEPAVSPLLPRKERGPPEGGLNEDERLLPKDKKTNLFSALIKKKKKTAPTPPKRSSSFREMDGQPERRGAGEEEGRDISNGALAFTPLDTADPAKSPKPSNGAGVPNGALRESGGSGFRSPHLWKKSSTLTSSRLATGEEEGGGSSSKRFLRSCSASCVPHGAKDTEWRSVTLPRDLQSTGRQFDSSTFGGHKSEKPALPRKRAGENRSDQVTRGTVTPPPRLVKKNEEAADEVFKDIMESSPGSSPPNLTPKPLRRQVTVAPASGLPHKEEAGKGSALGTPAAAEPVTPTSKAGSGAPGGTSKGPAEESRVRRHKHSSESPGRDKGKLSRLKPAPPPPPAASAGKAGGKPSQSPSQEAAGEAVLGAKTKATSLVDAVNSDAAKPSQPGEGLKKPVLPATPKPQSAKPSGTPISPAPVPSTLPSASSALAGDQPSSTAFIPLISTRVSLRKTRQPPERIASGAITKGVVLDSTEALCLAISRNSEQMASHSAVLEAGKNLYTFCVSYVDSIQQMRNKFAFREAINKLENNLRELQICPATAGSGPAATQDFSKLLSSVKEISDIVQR

[6] = biological target: Activin receptor type-2B (Homo sapiens) (UniProt Q13705); assay: Inhibition of wild-type human ACTR2B (H169 to D504 residues) expressed in bacterial expression system assessed as residual activity at 50 nM by Kinomescan method relative to control
[7] = biological target: NUAK family SNF1-like kinase 2 (Homo sapiens) (UniProt Q9H093); assay: Inhibition of human NUAK2 (P22 to A333 residues) expressed in mammalian expression system assessed as residual activity at 50 nM by KINOMEscan assay relative to control
Sequence of NUAK family SNF1-like kinase 2 (Homo sapiens) (Q9H093 whole entry, the tested form may be a part): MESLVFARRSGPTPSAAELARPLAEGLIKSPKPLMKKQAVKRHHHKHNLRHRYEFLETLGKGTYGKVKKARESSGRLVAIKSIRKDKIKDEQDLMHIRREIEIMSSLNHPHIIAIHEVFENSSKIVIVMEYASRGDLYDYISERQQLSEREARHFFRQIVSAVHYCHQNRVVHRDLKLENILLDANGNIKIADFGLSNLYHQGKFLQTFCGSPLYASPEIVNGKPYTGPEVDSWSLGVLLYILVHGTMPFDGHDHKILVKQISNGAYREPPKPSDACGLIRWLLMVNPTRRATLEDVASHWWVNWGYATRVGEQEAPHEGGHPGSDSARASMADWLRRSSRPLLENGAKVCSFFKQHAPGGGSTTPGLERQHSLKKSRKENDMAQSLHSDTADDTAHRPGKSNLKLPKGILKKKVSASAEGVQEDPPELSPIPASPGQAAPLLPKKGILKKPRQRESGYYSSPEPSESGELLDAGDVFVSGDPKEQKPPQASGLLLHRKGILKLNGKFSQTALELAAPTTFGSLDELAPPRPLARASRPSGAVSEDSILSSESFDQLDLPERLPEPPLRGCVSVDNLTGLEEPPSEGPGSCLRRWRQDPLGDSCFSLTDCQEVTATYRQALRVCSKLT

[8] = biological target: Ribosomal protein S6 kinase alpha-4 (Homo sapiens) (UniProt O75676); assay: Inhibition of wild-type human partial length N-terminal MSK2 kinase domain 1 expressed in bacterial expression system assessed as residual activity at 50 nM by Kinomescan method relative to control
Sequence of Ribosomal protein S6 kinase alpha-4 (Homo sapiens) (O75676 whole entry, looked up, the tested form may be a part): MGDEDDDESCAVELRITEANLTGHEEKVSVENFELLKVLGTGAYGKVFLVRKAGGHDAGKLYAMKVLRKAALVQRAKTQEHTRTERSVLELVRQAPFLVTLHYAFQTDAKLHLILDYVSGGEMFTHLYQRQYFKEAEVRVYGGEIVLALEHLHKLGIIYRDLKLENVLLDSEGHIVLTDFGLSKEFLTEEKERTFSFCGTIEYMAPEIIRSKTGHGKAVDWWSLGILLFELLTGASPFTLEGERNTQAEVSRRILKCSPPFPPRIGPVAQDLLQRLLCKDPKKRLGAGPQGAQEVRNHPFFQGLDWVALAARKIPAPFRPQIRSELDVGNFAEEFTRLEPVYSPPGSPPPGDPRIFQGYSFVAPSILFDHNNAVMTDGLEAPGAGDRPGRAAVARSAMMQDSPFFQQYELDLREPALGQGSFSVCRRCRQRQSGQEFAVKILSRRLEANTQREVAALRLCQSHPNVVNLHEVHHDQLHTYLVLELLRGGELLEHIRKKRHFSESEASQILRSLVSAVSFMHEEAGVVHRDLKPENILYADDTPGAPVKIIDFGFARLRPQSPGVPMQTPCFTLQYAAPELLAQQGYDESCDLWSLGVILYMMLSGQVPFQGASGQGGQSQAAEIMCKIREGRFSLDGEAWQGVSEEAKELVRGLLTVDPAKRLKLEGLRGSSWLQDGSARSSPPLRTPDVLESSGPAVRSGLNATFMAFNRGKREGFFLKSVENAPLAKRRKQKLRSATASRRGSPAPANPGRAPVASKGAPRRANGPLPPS

[9] = biological target: Serine/threonine-protein kinase DCLK1 (Homo sapiens) (UniProt O15075); assay: Inhibition of wild-type human partial length DCAMKL1 (L270 to A662 residues) expressed in mammalian expression system assessed as residual activity at 50 nM by Kinomescan method relative to control
[10] = biological target: Insulin receptor-related protein (Homo sapiens) (UniProt P14616); assay: Inhibition of wild-type human partial length IRR (R950 to E1278 residues) expressed in bacterial expression system assessed as residual activity at 50 nM by Kinomescan method relative to control
[11] = biological target: Mitogen-activated protein kinase kinase kinase 9 (Homo sapiens) (UniProt P80192); assay: Inhibition of wild-type human partial length MLK1 (V88 to W426 residues) expressed in bacterial expression system assessed as residual activity at 50 nM by Kinomescan method relative to control
[12] = biological target: Serine/threonine-protein kinase ICK (Homo sapiens) (UniProt Q9UPZ9); assay: Inhibition of wild-type human partial length ICK (M1 to P314 residues) expressed in mammalian expression system assessed as residual activity at 50 nM by Kinomescan method relative to control
[13] = biological target: Ribosomal protein S6 kinase alpha-5 (Homo sapiens) (UniProt O75582); assay: Inhibition of wild-type human partial length C-terminal MSK1 kinase domain 2 (V390 to T718 residues) expressed in bacterial expression system assessed as residual activity at 50 nM by Kinomescan method relative to control
[14] = biological target: Eukaryotic translation initiation factor 2-alpha kinase 1 (Homo sapiens) (UniProt Q9BQI3); assay: Inhibition of wild-type human partial length EIF2AK1 (Q147 to E603 residues) expressed in mammalian expression system assessed as residual activity at 50 nM by Kinomescan method relative to control
Sequence of Eukaryotic translation initiation factor 2-alpha kinase 1 (Homo sapiens) (Q9BQI3 whole entry, the tested form may be a part): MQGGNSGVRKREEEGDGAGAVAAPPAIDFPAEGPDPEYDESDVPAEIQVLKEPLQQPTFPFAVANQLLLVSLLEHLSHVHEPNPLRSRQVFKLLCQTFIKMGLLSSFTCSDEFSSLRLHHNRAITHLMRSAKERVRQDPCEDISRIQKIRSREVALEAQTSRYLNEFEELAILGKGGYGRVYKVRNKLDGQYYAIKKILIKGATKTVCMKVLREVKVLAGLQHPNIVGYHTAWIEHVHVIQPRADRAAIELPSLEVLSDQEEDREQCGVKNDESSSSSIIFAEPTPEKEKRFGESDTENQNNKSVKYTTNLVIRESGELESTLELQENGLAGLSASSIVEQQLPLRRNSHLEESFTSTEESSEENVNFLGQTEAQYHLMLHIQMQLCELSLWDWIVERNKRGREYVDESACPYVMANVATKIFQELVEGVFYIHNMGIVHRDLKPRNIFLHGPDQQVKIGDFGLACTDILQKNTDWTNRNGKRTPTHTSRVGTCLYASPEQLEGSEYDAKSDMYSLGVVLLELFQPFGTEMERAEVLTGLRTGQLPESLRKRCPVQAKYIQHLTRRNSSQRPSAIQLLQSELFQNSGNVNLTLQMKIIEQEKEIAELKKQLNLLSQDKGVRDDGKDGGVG

[15] = biological target: Misshapen-like kinase 1 (Homo sapiens) (UniProt Q8N4C8); assay: Inhibition of wild-type human partial length MINK (M1 to K312 residues) expressed in mammalian expression system assessed as residual activity at 50 nM by Kinomescan method relative to control
[16] = biological target: Casein kinase I isoform gamma-3 (Homo sapiens) (UniProt Q9Y6M4); assay: Inhibition of wild-type human full length CK1G3 (M1 to K447 residues) expressed in bacterial expression system assessed as residual activity at 50 nM by Kinomescan method relative to control
Sequence of Casein kinase I isoform gamma-3 (Homo sapiens) (Q9Y6M4 whole entry, looked up, the tested form may be a part, canonical isoform): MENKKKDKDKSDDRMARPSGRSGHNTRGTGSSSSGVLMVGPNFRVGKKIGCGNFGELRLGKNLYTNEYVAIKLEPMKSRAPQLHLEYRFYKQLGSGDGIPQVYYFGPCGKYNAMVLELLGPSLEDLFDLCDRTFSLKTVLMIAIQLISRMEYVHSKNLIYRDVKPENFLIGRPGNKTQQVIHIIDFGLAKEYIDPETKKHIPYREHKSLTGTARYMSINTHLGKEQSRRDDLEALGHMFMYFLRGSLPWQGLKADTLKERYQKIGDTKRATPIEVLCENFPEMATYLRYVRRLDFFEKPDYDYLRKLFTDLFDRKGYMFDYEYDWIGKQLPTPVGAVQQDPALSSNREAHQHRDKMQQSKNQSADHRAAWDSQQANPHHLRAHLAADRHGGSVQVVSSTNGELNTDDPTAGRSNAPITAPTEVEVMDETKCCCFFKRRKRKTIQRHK

[17] = biological target: Death-associated protein kinase 1 (Homo sapiens) (UniProt P53355); assay: Inhibition of wild-type human partial length DAPK1 (M1 to F296 residues) expressed in bacterial expression system assessed as residual activity at 50 nM by Kinomescan method relative to control
[18] = biological target: Ephrin type-A receptor 2 (Homo sapiens) (UniProt P29317); assay: Inhibition of wild-type human partial length EPHA2 (T593 to V891 residues) expressed in bacterial expression system assessed as residual activity at 50 nM by Kinomescan method relative to control
[19] = biological target: Muscle, skeletal receptor tyrosine-protein kinase (Homo sapiens) (UniProt O15146); assay: Inhibition of wild-type human partial length MUSK (M553 to V869 residues) expressed in bacterial expression system assessed as residual activity at 50 nM by Kinomescan method relative to control
[20] = biological target: Protein kinase C delta type (Homo sapiens) (UniProt Q05655); assay: Inhibition of human PKCD (Q328 to D676 residues) expressed in bacterial expression system assessed as residual activity at 50 nM by KINOMEscan assay relative to control
[21] = biological target: Mitogen-activated protein kinase kinase kinase kinase 3 (Homo sapiens) (UniProt Q8IVH8); assay: Inhibition of wild-type human partial length KHS2 (M1 to D301 residues) expressed in bacterial expression system assessed as residual activity at 50 nM by Kinomescan method relative to control
[22] = biological target: Mitogen-activated protein kinase kinase kinase 11 (Homo sapiens) (UniProt Q16584); assay: Inhibition of wild-type human partial length MLK3 (I77 to W399 residues) expressed in bacterial expression system assessed as residual activity at 50 nM by Kinomescan method relative to control
[23] = biological target: ALK tyrosine kinase receptor (Homo sapiens) (UniProt Q9UM73); assay: Inhibition of wild-type human partial length ALK (I1088 to E1409 residues) expressed in mammalian expression system assessed as residual activity at 50 nM by Kinomescan method relative to control
[24] = biological target: SRSF protein kinase 2 (Homo sapiens) (UniProt P78362); assay: Inhibition of wild-type human full length SRPK2 (M1 to S686 residues) expressed in bacterial expression system assessed as residual activity at 50 nM by Kinomescan method relative to control
[25] = biological target: Tyrosine-protein kinase ZAP-70 (Homo sapiens) (UniProt P43403); assay: Inhibition of wild-type human partial length ZAP70 (D20 to G299 residues) expressed in mammalian expression system assessed as residual activity at 50 nM by Kinomescan method relative to control
Sequence of Tyrosine-protein kinase ZAP-70 (Homo sapiens) (P43403 whole entry, the tested form may be a part): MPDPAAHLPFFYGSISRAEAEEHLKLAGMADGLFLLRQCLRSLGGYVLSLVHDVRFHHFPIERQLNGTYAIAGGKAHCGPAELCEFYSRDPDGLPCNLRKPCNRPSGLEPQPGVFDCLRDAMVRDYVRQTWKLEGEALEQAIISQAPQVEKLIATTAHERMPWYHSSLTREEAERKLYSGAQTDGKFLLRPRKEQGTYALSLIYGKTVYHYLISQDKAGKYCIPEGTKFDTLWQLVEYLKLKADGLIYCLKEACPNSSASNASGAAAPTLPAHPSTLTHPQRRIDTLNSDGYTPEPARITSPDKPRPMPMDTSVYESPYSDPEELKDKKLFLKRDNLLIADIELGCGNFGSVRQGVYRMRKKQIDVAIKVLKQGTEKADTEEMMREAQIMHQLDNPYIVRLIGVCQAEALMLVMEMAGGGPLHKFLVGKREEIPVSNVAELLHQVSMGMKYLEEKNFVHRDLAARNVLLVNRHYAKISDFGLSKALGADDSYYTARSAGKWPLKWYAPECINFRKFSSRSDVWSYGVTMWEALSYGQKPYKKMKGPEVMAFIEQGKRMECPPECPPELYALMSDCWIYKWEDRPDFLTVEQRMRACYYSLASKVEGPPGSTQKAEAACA

| SMILES | Activity [1] [%] | Activity [2] [%] | Activity [3] [%] | Activity [4] [%] | Activity [5] [%] | Activity [6] [%] | Activity [7] [%] | Activity [8] [%] | Activity [9] [%] | Activity [10] [%] | Activity [11] [%] | Activity [12] [%] | Activity [13] [%] | Activity [14] [%] | Activity [15] [%] | Activity [16] [%] | Activity [17] [%] | Activity [18] [%] | Activity [19] [%] | Activity [20] [%] | other results |
| --- | --- | --- | --- | --- | --- | --- | --- | --- | --- | --- | --- | --- | --- | --- | --- | --- | --- | --- | --- | --- | --- |
| CC1(C)[C@H](Nc2c(C(N)=O)cnn3cc(-c4ccccc4)cc23)CC[C@]1(C)N | 98 | 5.3 | 38 | 99 | 100 | 67 | 2.7 | 100 | 67 | 100 | 78 | 64 | 95 | 94 | 100 | 100 | 63 | 81 | 43 | 9.5 | Activity [21]: 18%; Activity [22]: 64%; Activity [23]: 100%; Activity [24]: 95%; Activity [25]: 79% |
| COc1ccc(-c2cc3c(N[C@@H]4CC[C@](C)(N)C4(C)C)c(C(N)=O)cnn3c2)cn1 | 94 | 36 | 74 | 91 | 74 | 100 | 7 | 100 | 99 | 92 | 90 | 100 | 100 | 96 | 96 | 100 | 96 | 100 | 90 | 30 | Activity [21]: 49%; Activity [22]: 100%; Activity [23]: 94%; Activity [24]: 81%; Activity [25]: 92% |
